Data: patent US7897732B2, “Antibodies to heparin-binding growth factor (HBGF) polypeptides” (Childrens Hospital Research Foundation, priority 1997, dated 2011)

Experiments:
[1] = [3H]heparin binding of synthetic CTGF polypeptides on nitrocellulose dot-blot; details: 37.5 nmol polypeptide on nitrocellulose, 10 μCi/ml [3H]heparin, room temperature
Description: Eighteen synthetic polypeptides spanning the entire 103 C-terminal residues of CTGF were synthesized and received as a cleaved PepSet™ from Chiron Mimotopes (Clayton, Victoria, Australia). All polypeptides were synthesized with acetylated N-termini and amidated C-termini except CTGF-(247-255) and CTGF-(247-260), which were synthesized with free N-terminal amines, and CTGF-(326-349) and CTGF-(339-349), which were synthesized with acid C-termini (Table 3).
All polypeptides contained one or no Cys residues; Cys^292 in CTGF(285-292) and Cys^325 in CTGF-(318-328) were replaced with Ser to prevent intra-chain disulfide bridging to Cys^287 or Cys^323 within the respective polypeptides. Heparin-binding properties were determined using an adaptation of the method of Baird et al. (Baird, A., et al. Proc. Natl. Acad. Sci. U.S.A. 85, 2324-2328(1988)). Briefly, 37.5 nmol of each polypeptide were absorbed in duplicate to nitrocellulose using a dot-blot apparatus. The blot was blocked for 30 min. with 10 mM Tris-HCl, 0.15 M NaCl, 0.1% bovine serum albunin (pH 7.4) and then incubated for 3 hr. at room temperature in this solution containing 10 μCi/ml [^3H]heparin (NEN Life Science Products). The blot was washed four times with 10 mM Tris-HCl, 0.15 M NaCl, and individual dots were mixed with scintillation fluid for counting of [^3H].

Balb/c 3T3 fibroblasts = assay: DNA synthesis ([3H]thymidine incorporation) assay in confluent quiescent Balb/c 3T3 cells; format: cell-based; details: for [3H]Thymidine incorporation (mean ± S.D.): Balb/c 3T3 fibroblasts
Description: To assess the relative mitogenic capability of HBGFs with IGF-1, EGF, bFGF, and PDGF-AB, DNA synthesis assays on 3T3 cells were performed (Table 4). Biologically active fractions containing the 0.3-0.6 M NaCl eluate from the Bio-Rex column were pooled, diluted 3-fold with 20 mM Tris-HCL (pH 7.4) containing 0.1% CHAPS, passed through a 0.45-μm membrane filter, placed in a siliconized polypropylene vessel, and applied with a peristaltic pump to an EconoPac heparin column (0.7×3.6 cm; Bio-Rad) at 2 ml/min. The heparin column was then washed with 50 ml of 20 mM Tris-HCl buffer, 0.2 M NaCl, 0.1% CHAPS and developed at 1 ml/min with a 40 ml gradient of 0.1-2.0 M NaCl in 20 mM Tris-HCl, 0.1% CHAPS (pH 7.4) using a fast protein liquid chromatography (FPLC) system (Pharmacia Biotech Inc.). Fractions (1 ml) were collected into siliconized tubes during NaCl gradient elution and tested for 3T3 cell mitogenic activity. Column fractions were tested for their ability to stimulate DNA synthesis as measured by [^3H]thymidine incorporation into the DNA of confluent quiescent Balb/c 3T3 cells grown in 200 μl of Dulbecco's modified Eagle's medium, 10% bovine calf serum in 96-well culture plates as described (Kim, G. Y., et al., Biol. Reprod. 52, 561-571 (1995)). Dose-response curves to purified growth factors from ULF were established by assaying each dose in triplicate, with data computed as mean±S.D. Statistical significance of the effects of 1-100 μg/ml porcine heparin (Sigma) on growth factor activity was determined by Students' t test.

[2] = tested on: Vascular smooth muscle cells; assay: Smooth muscle cell DNA synthesis assay; format: cell-based, pig; details: 3 ng/ml
Description: (§1) Target cell specificity was studied using Balb/c 3T3 cells, bovine capillary endothelial cells (BCECs), and vascular smooth muscle cells. 3T3 cells were utilized as described above. BCECs were obtained from Dr. J. Folkman (Children's Hospital, Boston, Mass.) and were maintained in gelatinized culture flasks in Dulbecco's modified Eagle's medium containing 3 ng/ml bFGF and 10% heat-inactivated bovine calf serum. Smooth muscle cells were isolated from a 2-3-cm length of pig thoracic aorta using established procedures (Weich, H. A., et al., Growth Factors 2, 313-320 (1990)) and maintained in 10% Dulbecco's modified Eagle's medium, 10% fetal bovine serum. BCEC and smooth muscle cell DNA synthesis assays were performed in 48- or 96-well plates essentially as described (Besner, G. E., Higashiyama, S., and Kagsbrun, M. Cell Regul. 1, 811-819 (1990)). BCEC DNA synthesis assays were also performed in the presence of 100 μg/ml porcine heparin.

[3] = tested on: bovine capillary endothelial cells (BCECs); assay: BCEC DNA synthesis assay; format: cell-based
Description: as §1

Substance	[3H]Heparin bound (mean ± S.D.) [1] [cpm/μg]	further results
MFIKTCASHYN (Ac-MFIKTCASHYN-NH2) [Ser^325 CTGF-(318-328)]	601 ± 40	–
PDGEVMKKNMMFIKT (Ac-PDGEVMKKNMMFIKT-NH2) [CTGF-(308-322)]	71 ± 2	–
TPKISKPIKFELSGCTS (Ac-TPKISKPIKFELSGCTS-NH2) [CTGF-(259-275)]	124 ± 3	–
ACHYN [CTGF-(324-328)]	9 ± 1	–
epidermal growth factor [EGF, reference compound]	–	[3H]Thymidine incorporation (mean ± S.D.) (Balb/c 3T3 fibroblasts; 30 ng/ml): 11,550 ± 101 Cpm/well; [3H]Thymidine incorporation (mean ± S.D.) [2]: 1,343 ± 378 Cpm/well
heparin [reference compound]	–	Effect on basal or calf serum-stimulated DNA synthesis in 3T3 cells (Balb/c 3T3 fibroblasts; 1-100 μg/ml heparin): no effect; [3H]Thymidine incorporation (mean ± S.D.) ([3]; 100 μg/ml): 240 ± 52 Cpm/well
TSMKTYRAKFCGV (Ac-TSMKTYRAKFCGV-NH2) [CTGF-(274-286)]	1108 ± 119	–
LYYRKMYGDMA (Ac-LYYRKMYGDMA-OH) [CTGF-(339-349)]	9 ± 0.5	–
insulin-like growth factor [IGF-1, reference compound]	–	[3H]Thymidine incorporation (mean ± S.D.) (Balb/c 3T3 fibroblasts; 30 ng/ml): 4,412 ± 170 Cpm/well
basic fibroblast growth factor [bFGF]	–	[3H]Thymidine incorporation (mean ± S.D.) (Balb/c 3T3 fibroblasts; 10 ng/ml): 73,853 ± 3,122 Cpm/well; [3H]Thymidine incorporation (mean ± S.D.) [2]: 3,082 ± 374 Cpm/well; [3H]Thymidine incorporation (mean ± S.D.) ([3]; 3 ng/ml): 2,865 ± 276 Cpm/well; [3H]Thymidine incorporation (mean ± S.D.) ([3]; 3 ng/ml + 100 μg/ml heparin): 1,840 ± 4 Cpm/well
HYNCPGDNDIFESLYYRKMYGDMA (Ac-HYNCPGDNDIFESLYYRKMYGDMA-OH) [CTGF-(326-349)]	10 ± 1	–
FKCPDGEVMKKNMMFIKT (Ac-FKCPDGEVMKKNMMFIKT-NH2) [CTGF-(305-322)]	237 ± 22	–
GVCTDGR (Ac-GVCTDGR-NH2) [CTGF-(285-291)]	7 ± 0.3	–
TPHRTTTLPVEFK (Ac-TPHRTTTLPVEFK-NH2) [CTGF-(294-306)]	11 ± 0.4	–
aFGF: acidic fibroblast growth factor	–	[3H]Thymidine incorporation (mean ± S.D.) ([3]; 3 ng/ml): 603 ± 46 Cpm/well; [3H]Thymidine incorporation (mean ± S.D.) ([3]; 3 ng/ml + 100 μg/ml heparin): 2,232 ± 236 Cpm/well
CTPHRTTTLPVEFK (Ac-CTPHRTTTLPVEFK-NH2) [CTGF-(293-306)]	9 ± 1.1	–
EENIKKGKKCIRTP [CTGF-(247-260)]	836 ± 1	–
platelet-derived growth factor [PDGF-AB, reference compound]	–	[3H]Thymidine incorporation (mean ± S.D.) (Balb/c 3T3 fibroblasts; 30 ng/ml): 110,110 ± 7,077 Cpm/well
MFIKTCA (Ac-MFIKTCA-NH2) [CTGF-(318-324)]	475 ± 116	–
GVCTDGRS (Ac-GVCTDGRS-NH2) [Ser^292 CTGF-(285-292)]	8 ± 0.4	–
IRTPKISKPIKFELSG (Ac-IRTPKISKPIKFELSG-NH2) [CTGF-(257-272)]	70 ± 13	–
PGDNDIFESLY (Ac-PGDNDIFESLY-NH2) [CTGF-(330-340)]	10 ± 0.5	–
EENIKKGKK [CTGF-(247-255)]	10 ± 0.3	–
TSMKTYRAKF (Ac-TSMKTYRAKF-NH2) [CTGF-(274-283)]	388 ± 12	–
